# Results taken from US9265774B2, “Methods, compounds and pharmaceutical compositions for treating anxiety and mood disorders” (New York University, priority 2011, dated 2016).
# Tests used:
# [1] = system: model of chronic depression in mice (repeated forced swim)
# Description: We administered the pro-drugs shortly before one or more tests of antidepressant activity including reversal of immobility during tail suspension and forced swimming and attenuation of anhedonia produced by endotoxin administration. […] (Stone et al., Eur. J. Pharmacol. (2001) 420: 97-102) Because dp6FNE like all other antidepressants has an initial anorexic effect and acutely reduces the consumption of sweet solutions, in the test for anhedonia it was necessary to employ a non-nutritive hedonic behavior, FUST (sniffing of estrous female urine). […] (Stone et al., Neuropsychopharmacology (2011) 14: 319-331); Sun et al., J. Neurosci. Methods (2003) 126:35-40; Sun et al., Behavioral Pharmacology (2008) 19: 334-338).
# Mice were swum for 15 min/d on 4 d and tested for the response to acute i.p dp6FNE (1 or 3 mg/kg) alone or in combination with 8-OHDPAT (0.05 mg/kg) and corticosterone (3 mg/kg) on the 5th and final swim (15 min after drug administration). […] Comparison groups receiving currently available antidepressants were treated acutely i.p. or chronically (14 d osmotic pumps) with either desmethylimipramine (DMI) (10 mg/kg), fluoxetine (5 mg/kg), escitalopram (5 mg/kg), bupropion (10 mg/kg) or ketamine (10 mg/kg).
# Although corticosteroids are well known to produce depression (Gourley et al., Biol Psychiatry (2008) 64: 884-890), this occurs at high doses only. […] Mice were swum for 3 d and given either vehicle (0.8% ethanol) or corticosterone (12.5 μg/ml) in their drinking water.
# As described in Example 4a, the cocktail was tested in a mouse model of chronic depression (RFS).
# [2] = prazosin: at 0.2 mg/kg in mice; cited from earlier work
# Fos expression in the LC = Fos expression in the LC in the tail suspension test; format: in vivo, mice; conditions: dp6FNE 3 mg/kg i.p. before a 6 min tail suspension test, with prazosin 0.2 mg/kg
# Experimental: (§1) In the RFS study, mice were subjected to 4 daily 15 min swims as described above and were injected i.p. with either vehicle or dp6FNE (3 mg/kg) 15 min prior to the 5th swim. In the TST study, animals were injected similarly before a 6 min test. […] The animals were anesthetized and perfused for immuno-histochemistry 70 min after the start of the swim or tail suspension. Brains were processed as described previously for double-label immunofluorescent Fos/tyrosine hydroxylase staining of all sections through the LC and for single-label Fos staining through the full PVH (Stone et al., Brain Res (2009) 1291: 21-31). […] In the tail suspended mice the analogous reductions were 53.5±7.2% (LC) and 36.7±3.1 (PVH). […] These findings thus indicate that a dose of […] dp6FNE that has preferential inhibitory effects on the LC during depression exists.
# [3] = system: endotoxin-induced inhibition of the female urine sniffing test (FUST); test: Endotoxin (LPS)-induced anhedonia, female urine sniffing test (FUST); format: in vivo, mice
# Experimental: To determine if dp6FNE would also be active in an anhedonia-based model of depression, the compound was tested for its ability to reverse an endotoxin-induced inhibition of the female urine sniffing test (FUST), a non-nutritive hedonic behavior, whose impairment by stress was recently validated as a model of depression in this species (Malkesman et al., Biol Psychiatry (2010) 67: 864-871) A non-nutritive rewarding behavior was used because dp6FNE, like most other acutely administered antidepressants, has initial anorexic effects that inhibit the consumption of sweet solutions (Currie et al., Brain Res (1998) 800: 62-68). […] The repeated forced swim (RFS) model could not be used for this test because it is not a severe enough stress to reliably produce anhedonia in this species (Stone et al., Pharmacol Biochem Behav (2008b) 91: 190-195).
# Male mice were trained to sniff estrous urine (verified by vaginal smears) presented on cotton swabs in the home cage over 3 d and were matched on sniffing duration (proximity to the swab in a 3 min test) into control and depression groups. These groups were administered i.p. control solution (H2O) or lipopolysaccharide (LPS), 400 μg/kg, respectively, and were left undisturbed for 24 h, which is necessary for the initial sickness behavior, but not the anhedonia, to subside (Frenois et al., Psychoneuroendocrinology (2007) 32: 516-531).
# [4] = system: Fos expression in the PVH; test: Fos expression in the PVH during the RFS model; format: in vivo, mice; conditions: dp6FNE 3 mg/kg i.p. 15 min prior to the 5th swim, with prazosin 0.2 mg/kg; swum animals, versus vehicle
# Experimental: as §1
# [5] = system: immobility in tail suspension test; test: Tail suspension test (TST); format: in vivo, mice
# Experimental: In the RFS study, mice were subjected to 4 daily 15 min swims as described above and were injected i.p. with either vehicle or dp6FNE (3 mg/kg) 15 min prior to the 5th swim. In the TST study, animals were injected similarly before a 6 min test. […] The animals were anesthetized and perfused for immuno-histochemistry 70 min after the start of the swim or tail suspension. Brains were processed as described previously for double-label immunofluorescent Fos/tyrosine hydroxylase staining of all sections through the LC and for single-label Fos staining through the full PVH (Stone et al., Brain Res (2009) 1291: 21-31).
# To determine if dp6FNE was active in a more traditional test of antidepressant activity, it was given as above 15 min prior to a tail suspension test.
# (§2) The first test involves an acute stress-induced model of depression (Steru, et al., Psychopharmacology 1985; 85: 367-370) whereas the second, a more prolonged, chronic depression that is more akin to chronic human depression (Stone, et al., Pharmacol Biochem Behav 2008; 91: 190-195).
# [6] = system: Fos expression in the PVH; test: Fos expression in the PVH in the tail suspension test; format: in vivo, mice; conditions: dp6FNE 3 mg/kg i.p. before a 6 min tail suspension test, with prazosin 0.2 mg/kg
# Experimental: as §1
# [7] = system: CMS reduction of intake of sweetened milk; test: Chronic mild stress (CMS)-anhedonia model, consumption of sweetened milk; format: in vivo; conditions: acute i.p. dp6FNE
# [8] = system: repeated open-space swim model; test: Repeated open-space (forced) swim test; format: in vivo, mice; conditions: acute i.p., dp6FNE at 1, 3 and 10 mg/kg given along with phentolamine 5 mg/kg i.p.
# Description: as §2
smiles,measurement,setting,value
"CC(C)(C)C(=O)Oc1cc(F)c(C(O)CN)cc1OC(=O)C(C)(C)C (centres unmarked) [dp6FNE, dipivalyl-6-fluoronorepinephrine]",persistence of anti-immobility effect,"[1]; dp6FNE 0.5 mg/kg, i.p., repeated daily",at least 11 daily treatments
same,increase of distance swum,"[1]; dp6FNE 1 mg/kg acute i.p., 15 min before 5th swim, with prazosin 0.2 mg/kg",+77.5±5.2%
same,"decrease of immobility, maximum effect","[1]; dp6FNE 3 mg/kg acute i.p., 15 min before 5th swim, with prazosin 0.2 mg/kg",−39.4±16.6%
same,"signs of toxicity (reduced arousal, disheveled fur coat) after repeated treatment","[1]; repeated daily treatment, no formal measures",no obvious signs of toxicity
same,effect of oral administration on immobility,"[1]; tube fed with prazosin 0.2 mg/kg, 45 min prior to the 5th swim",dose-dependent reduction in immobility
same,passage of the blood brain barrier,[2],does pass the blood brain barrier
same,reduction in gene expression (Fos) in the LC,Fos expression in the LC,53.5±7.2%
same,"change of time sniffing, Con vs LPS","[3]; dp6FNE (1 mg/kg) i.p. with prazosin 0.2 mg/kg, 15 min before test, 24 h after LPS 400 μg/kg",+4.6±1.4%
same,effect on the FUST in the absence of endotoxin,"[3]; dp6FNE i.p. with prazosin 0.2 mg/kg, control (H2O) animals",did not significantly affect the FUST
same,reduction in gene expression (Fos) in the PVH,[4],13.0±20.1%
same,immobility in tail suspension test,"[5]; 3 mg/kg i.p. with prazosin 0.2 mg/kg, 15 min prior to test",significant reduction of immobility
same,antidepressant action in the tail suspension test,"[5]; i.p. at doses of 1, 3 and 10 mg/kg, given along with phentolamine 5 mg/kg i.p.",significant antidepressant action
same,reduction in gene expression (Fos) in the PVH,[6],36.7±3.1
same,effect on CMS reduction of sweetened milk intake,[7],eliminates the CMS reduction of intake
same,effect on food intake (hypophagia),[7],significant hypophagia
same,acute effect in the repeated open-space swim test,[8],strong effect
same,acute effect in the repeated open-space swim test,[8]; listed as 6dpFNE,significant antidepressant action
